Results on one compound are retold here after patent US7915291B2, “Hepatitis C virus inhibitors” (Bristol-Myers Squibb Company, priority 2002, dated 2011).

The target of experiment [1] is T1, porcine pancreatic elastase (PPE) (Sus scrofa, UniProt P00772).
T1 construct: purchased Sigma
Kind of experiment: Specificity assay, PPE. It is filed as biochemical. Conditions: 2 hr pre-incubation. The procedure: (§1) The specificities of compounds of the present invention were determined against a variety of serine proteases: human leukocyte elastase (HLE), porcine pancreatic elastase (PPE) and human pancreatic chymotrypsin and one cysteine protease: human liver cathepsin B. In all cases a 96-well plate format protocol using colorimetric p -nitroaniline (pNA) substrate specific for each enzyme was used as described previously (Patent WO 00/09543) with some modifications to the serine protease assays. All enzymes were purchased from Sigma while the substrates were from Bachem.
(§2) Each assay included a 2 hr enzyme-inhibitor pre-incubation at RT followed by addition of substrate and hydrolysis to ˜30% conversion as measured on a Spectramax Pro microplate reader. Compound concentrations varied from 100 to 0.4 μM depending on their potency. […]
(§3) The percentage of inhibition was calculated using the formula: [1−((UVinh−UVblank)/(UVctl−UVblank))]×100 […]

Experiment [2] deals with T2, human leukocyte elastase (HLE) (Homo sapiens, UniProt P08246).
T2 construct: purchased Sigma
T2 sequence (P08246 30-267): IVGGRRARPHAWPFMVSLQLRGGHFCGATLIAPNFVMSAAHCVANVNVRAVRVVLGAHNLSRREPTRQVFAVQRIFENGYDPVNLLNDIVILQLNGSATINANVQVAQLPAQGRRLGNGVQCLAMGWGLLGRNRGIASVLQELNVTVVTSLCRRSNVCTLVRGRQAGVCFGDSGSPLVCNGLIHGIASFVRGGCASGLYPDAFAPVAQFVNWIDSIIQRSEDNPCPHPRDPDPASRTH
Kind of experiment: Specificity assay, HLE. Particulars: 2 hr pre-incubation. It is filed as biochemical. The procedure:
as §1, §2, §3

T1 sequence (P00772 27-266): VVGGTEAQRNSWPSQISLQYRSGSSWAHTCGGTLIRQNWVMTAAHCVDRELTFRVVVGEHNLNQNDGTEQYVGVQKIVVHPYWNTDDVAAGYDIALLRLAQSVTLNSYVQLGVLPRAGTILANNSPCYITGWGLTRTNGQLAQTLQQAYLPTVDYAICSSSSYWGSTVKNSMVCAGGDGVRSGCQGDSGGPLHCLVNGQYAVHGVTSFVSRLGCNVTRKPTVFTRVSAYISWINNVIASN

What is called IC50 is the concentration needed to halve the response being measured. Read a high IC50 as weaker potency. As to `C=C[C@@H]1C[C@]1(NC(=O)[C@@H]1C[C@@H](Oc2nc(C3CC3)cc3ccccc23)CN1C(=O)[C@@H](NC(=O)OC(C)(C)C)C(C)(C)C)C(=O)NS(=O)(=O)C1CC1` [Compound 34], the IC50 in experiment [1] is over 200 µM; in experiment [2] it was over 100 µM.
